Assay results: PMC6078987, “Molecular insights into antibiotic resistance - how a binding protein traps albicidin” (Nature Communications, 2018)

Biological target: T1, GyrBA59 (Escherichia coli, UniProt P0AES4+P0AES6)
T1 construct: combining the full-length GyrB and a C-terminally truncated GyrA segment (59 kDa); a C-terminally truncated GyrA segment (59 kDa); 6x His (TEV-cleavable) (N, cleaved yes); made in house; host or cells: E. coli BL21 DE3, pET-28a(+)
Experiment: DNA cleavage assay
Type: biochemical, E. coli
Conditions: 5 nM – 5120 nM albicidin, pBR322, 1.4 mM ATP
Procedure: E. coli DNA gyrase cleavage assays were performed by incubating 250 ng of supercoiled pBR322 plasmid DNA (Inspiralis, Norwich, UK) with 25 nM of GyrBA59 protein in 20 µL reactions containing 35 mM Tris-HCl (pH 8.0), 24 mM KCl, 4 mM MgCl2, 2 mM DTT, 1.8 mM spermidine, 1.4 mM ATP, 6.5% (w/v) glycerol, and 0.1 mg mL^−1 bovine serum albumin in the presence or absence of various concentrations of albicidin (final concentration of 5% dimethyl sulfoxide (DMSO), incubation at 37 °C for 30 min). Linearized DNA was released by further incubation with 0.2% (w/v) SDS and 0.1 mg mL^−1 proteinase K (Promega, Madison, USA) at 37 °C for 30 min. The reaction was stopped by addition of 20 µL of reaction stop buffer (STEB buffer) (40% (w/v) sucrose, 100 mM Tris-HCl (pH 8.0), 10 mM EDTA, and 0.5 mg mL^−1 Bromophenol Blue) and precipitation using 30 µL of chloroform/isoamyl alcohol 24:1 (v:v). Samples were analyzed by electrophoresis in 1% w/v agarose gel containing 0.5 […] followed by photography under ultraviolet illumination.

T1 sequence (P0AES4 whole entry, looked up, other chains not shown, the tested form may be a part): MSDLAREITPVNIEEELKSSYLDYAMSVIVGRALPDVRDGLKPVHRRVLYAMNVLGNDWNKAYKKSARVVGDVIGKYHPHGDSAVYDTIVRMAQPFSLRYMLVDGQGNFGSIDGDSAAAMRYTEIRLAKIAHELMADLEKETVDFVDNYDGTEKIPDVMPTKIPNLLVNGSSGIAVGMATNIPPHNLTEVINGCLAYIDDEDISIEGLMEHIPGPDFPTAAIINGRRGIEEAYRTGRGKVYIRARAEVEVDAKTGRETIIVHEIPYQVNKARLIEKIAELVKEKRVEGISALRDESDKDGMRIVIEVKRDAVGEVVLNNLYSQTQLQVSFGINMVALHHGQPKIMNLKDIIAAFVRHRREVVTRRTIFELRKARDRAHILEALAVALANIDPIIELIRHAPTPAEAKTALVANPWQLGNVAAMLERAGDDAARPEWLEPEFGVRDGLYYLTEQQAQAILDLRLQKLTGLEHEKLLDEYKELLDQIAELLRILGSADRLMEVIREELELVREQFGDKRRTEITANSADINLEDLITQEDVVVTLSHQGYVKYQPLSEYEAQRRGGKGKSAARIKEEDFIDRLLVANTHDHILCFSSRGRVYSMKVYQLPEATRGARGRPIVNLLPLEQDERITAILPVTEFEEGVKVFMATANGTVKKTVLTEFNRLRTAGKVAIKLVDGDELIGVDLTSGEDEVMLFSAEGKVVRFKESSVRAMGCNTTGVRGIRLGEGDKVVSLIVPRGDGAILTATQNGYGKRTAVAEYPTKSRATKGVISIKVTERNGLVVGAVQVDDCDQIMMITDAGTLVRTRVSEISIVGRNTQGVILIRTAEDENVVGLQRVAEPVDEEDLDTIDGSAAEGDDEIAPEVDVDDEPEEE

SMILES: COc1c(NC(=O)c2ccc(NC(=O)c3ccc(NC(=O)[C@H](CC#N)NC(=O)c4ccc(NC(=O)/C(C)=C/c5ccc(O)cc5)cc4)cc3)c(OC)c2O)ccc(C(=O)O)c1O [albicidin]
- stabilization of DNA cleavage complex (in words): stabilizing the cleavage complex
